# Data from ChEMBL document CHEMBL1201862, “PubChem BioAssay data set” (2004).
# Structures can show the parent of a compound that is named as a salt. Activity calls are given as the source filed them.
# What was measured:
# [1] = inhibitors of intracellular T. cruzi replication, confirmation, NIH3T3 host cells, beta-gal luminescence (AID 2044); type: functional, cell-based;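 also: intracellular parasites grown in NIH/3T3 mouse fibroblasts as host cells; luminescent beta-galactosidase reporter signal from transgenic T. cruzi replicating inside host cells; inhibitors lower the luminescence signal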
# [2] = cytotoxicity toward NIH3T3 fibroblasts, dose response, counter-screen, cell-based, ATP luminescence, mouse fibroblasts (AID 2010); type: functional;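 also: cells exposed to compound for about 90 hours before reading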
# [3] = inhibitors of firefly luciferase expression or activity, dose response, H4 neuroglioma cells, luminescence (AID 1990); type: functional, cell-based
# [4] = Luminescence Cell-Based Dose Response HTS to Identify Inhibitors of 5'UTR Stem-Loop Driven Prion Protein mRNA Translation in H4 Neuroglioblastoma Cells. [Related pubchem assays: 1827 (Project Summary), 1813 (Primary HTS)]; type: functional
# [5] = inhibitors of SNCA 5'UTR-driven reporter translation, confirmation, H4 neuroglioma cells, luminescence (AID 1988); type: functional, cell-based
# [6] = growth suppression of PTEN-null colon cells, dose response, cell-based, HCT116 PTEN knockout (AID 1047); type: functional;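 also: HCT116 colon tumor cells with PTEN knocked out; cells exposed to compound for 60 hours before readout; potency for loss of cell viability measured by luminescence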
# [7] = growth suppression of beta-catenin-knockout colon cells, dose response, cell-based, HCT116, human colon tumor (AID 1045); type: functional;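 also: HCT116 colon tumor cells with beta catenin knocked out; cells exposed to compound for 60 hours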
# [8] = target: T1, Ubiquitin-conjugating enzyme E2 N (Homo sapiens, UniProt P61088); type: functional;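 also: Dose-response confirmation in a TR-FRET assay detecting UBC13-driven polyubiquitin chain formation, inhibition measured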
# T1 sequence (P61088 whole entry): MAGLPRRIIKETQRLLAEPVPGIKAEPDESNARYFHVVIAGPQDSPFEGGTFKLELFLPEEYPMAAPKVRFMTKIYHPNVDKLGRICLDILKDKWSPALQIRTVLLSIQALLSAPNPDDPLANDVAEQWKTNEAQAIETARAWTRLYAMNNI
# [9] = Shn3 3'UTR reporter inhibitors, dose response, cell-based, Clone20 osteoblasts, firefly luciferase, cherry-picked (AID 624132); type: functional;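 also: firefly luciferase luminescence from reporter carrying the Shn3 3'UTR in osteoblasts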
# [10] = HepG2 cell cytotoxicity, dose response, cytotoxicity control for Shn3 inhibitor project, CellTiter-Glo, cherry-picked (AID 624134); type: functional, cell-based
# [11] = control 3'UTR Renilla luciferase suppression, dose response, counter-screen for Shn3 inhibitor project, cell-based, Clone20-Shn3RL, cherry-picked (AID 624133); type: functional
# [12] = target: T2, Histone-lysine N-methyltransferase NSD2 (Homo sapiens, UniProt O96028); type: biochemical
# T2 sequence (O96028 whole entry): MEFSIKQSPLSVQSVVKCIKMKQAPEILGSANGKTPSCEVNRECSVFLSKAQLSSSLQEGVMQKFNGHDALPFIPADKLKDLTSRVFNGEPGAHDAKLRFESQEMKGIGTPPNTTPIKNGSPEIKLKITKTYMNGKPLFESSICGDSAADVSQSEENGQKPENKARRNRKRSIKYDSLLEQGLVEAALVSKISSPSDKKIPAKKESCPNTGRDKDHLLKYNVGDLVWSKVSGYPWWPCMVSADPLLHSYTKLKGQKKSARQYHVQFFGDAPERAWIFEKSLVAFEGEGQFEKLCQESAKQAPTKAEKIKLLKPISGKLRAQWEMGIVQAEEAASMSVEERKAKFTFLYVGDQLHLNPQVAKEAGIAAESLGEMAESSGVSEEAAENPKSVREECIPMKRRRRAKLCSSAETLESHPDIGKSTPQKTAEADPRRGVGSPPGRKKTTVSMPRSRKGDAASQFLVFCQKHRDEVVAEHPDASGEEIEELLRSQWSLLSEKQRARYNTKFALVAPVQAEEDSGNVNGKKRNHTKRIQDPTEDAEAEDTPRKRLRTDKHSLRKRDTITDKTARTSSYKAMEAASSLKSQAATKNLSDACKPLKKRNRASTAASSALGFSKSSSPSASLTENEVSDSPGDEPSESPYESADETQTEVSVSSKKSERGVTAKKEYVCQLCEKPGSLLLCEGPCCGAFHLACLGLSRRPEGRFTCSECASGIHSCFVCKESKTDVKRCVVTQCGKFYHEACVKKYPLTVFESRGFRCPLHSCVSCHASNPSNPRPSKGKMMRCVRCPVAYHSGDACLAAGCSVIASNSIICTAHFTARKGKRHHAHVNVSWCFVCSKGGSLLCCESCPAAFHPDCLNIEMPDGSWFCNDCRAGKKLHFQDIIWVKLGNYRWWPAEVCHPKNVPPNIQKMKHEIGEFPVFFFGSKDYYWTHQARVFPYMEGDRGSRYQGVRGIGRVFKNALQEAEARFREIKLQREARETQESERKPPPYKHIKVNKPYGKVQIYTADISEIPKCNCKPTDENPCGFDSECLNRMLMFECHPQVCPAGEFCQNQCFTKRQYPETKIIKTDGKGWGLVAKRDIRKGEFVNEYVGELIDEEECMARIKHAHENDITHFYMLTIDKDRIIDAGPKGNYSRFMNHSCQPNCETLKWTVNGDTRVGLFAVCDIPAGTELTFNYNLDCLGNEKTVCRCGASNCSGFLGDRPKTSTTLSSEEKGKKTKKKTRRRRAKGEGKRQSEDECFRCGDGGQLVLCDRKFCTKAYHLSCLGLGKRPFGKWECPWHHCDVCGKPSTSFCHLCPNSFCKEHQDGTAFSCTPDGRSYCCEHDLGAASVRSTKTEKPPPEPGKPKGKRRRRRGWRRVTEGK
# Leucine aminopeptidase = target: T3, Leucine aminopeptidase (Plasmodium falciparum 3D7, UniProt Q8IL11); experiment: P. falciparum M17LAP inhibitors, primary screen, biochemical, fluorogenic H-Leu-NHMec substrate, 1536-well (AID 1619); type: functional
# T3 sequence (Q8IL11 whole entry): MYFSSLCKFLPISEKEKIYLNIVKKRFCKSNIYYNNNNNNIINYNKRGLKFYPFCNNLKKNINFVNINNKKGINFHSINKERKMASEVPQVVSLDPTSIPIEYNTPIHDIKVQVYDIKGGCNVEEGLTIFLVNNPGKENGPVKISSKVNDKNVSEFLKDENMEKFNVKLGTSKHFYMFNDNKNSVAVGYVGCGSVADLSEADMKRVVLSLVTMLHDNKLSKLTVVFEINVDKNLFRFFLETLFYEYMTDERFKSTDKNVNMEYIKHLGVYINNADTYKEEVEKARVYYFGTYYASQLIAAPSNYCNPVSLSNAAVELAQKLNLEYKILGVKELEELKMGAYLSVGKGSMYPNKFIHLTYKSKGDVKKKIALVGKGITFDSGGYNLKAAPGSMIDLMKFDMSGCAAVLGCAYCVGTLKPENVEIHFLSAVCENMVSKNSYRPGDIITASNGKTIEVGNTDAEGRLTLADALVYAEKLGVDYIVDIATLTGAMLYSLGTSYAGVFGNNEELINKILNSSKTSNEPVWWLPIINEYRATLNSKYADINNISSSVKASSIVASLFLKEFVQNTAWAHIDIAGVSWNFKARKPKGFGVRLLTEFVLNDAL
# [13] = target: Induced myeloid leukemia cell differentiation protein Mcl-1 (Homo sapiens, UniProt Q07820); type: functional
# Induced myeloid leukemia cell differentiation protein Mcl-1, sequence (Q07820 whole entry): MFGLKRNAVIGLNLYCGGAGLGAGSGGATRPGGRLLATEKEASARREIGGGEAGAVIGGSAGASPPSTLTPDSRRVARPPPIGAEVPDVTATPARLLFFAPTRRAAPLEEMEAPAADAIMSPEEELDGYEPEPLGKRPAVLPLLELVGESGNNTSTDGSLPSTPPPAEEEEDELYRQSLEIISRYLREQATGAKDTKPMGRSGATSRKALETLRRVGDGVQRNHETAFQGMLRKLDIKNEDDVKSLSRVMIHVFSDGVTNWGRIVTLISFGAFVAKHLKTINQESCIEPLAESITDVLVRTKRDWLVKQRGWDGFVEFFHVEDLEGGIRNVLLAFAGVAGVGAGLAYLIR
# [14] = target: T4, Heat shock factor protein 1 (Mus musculus, UniProt P38532); experiment: HSF1 potentiators in luciferase reporter cells, confirmation, cell-based, NIH3T3, luminescence, dose retest (AID 435004); type: functional;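 also: stress induced by proteasome inhibitor MG132 added 30 min after compound; luciferase reporter driven by HSF1 response element in NIH3T3 cells; actives raise luminescence as potentiators of the MG132 stress response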
# T4 sequence (P38532 whole entry): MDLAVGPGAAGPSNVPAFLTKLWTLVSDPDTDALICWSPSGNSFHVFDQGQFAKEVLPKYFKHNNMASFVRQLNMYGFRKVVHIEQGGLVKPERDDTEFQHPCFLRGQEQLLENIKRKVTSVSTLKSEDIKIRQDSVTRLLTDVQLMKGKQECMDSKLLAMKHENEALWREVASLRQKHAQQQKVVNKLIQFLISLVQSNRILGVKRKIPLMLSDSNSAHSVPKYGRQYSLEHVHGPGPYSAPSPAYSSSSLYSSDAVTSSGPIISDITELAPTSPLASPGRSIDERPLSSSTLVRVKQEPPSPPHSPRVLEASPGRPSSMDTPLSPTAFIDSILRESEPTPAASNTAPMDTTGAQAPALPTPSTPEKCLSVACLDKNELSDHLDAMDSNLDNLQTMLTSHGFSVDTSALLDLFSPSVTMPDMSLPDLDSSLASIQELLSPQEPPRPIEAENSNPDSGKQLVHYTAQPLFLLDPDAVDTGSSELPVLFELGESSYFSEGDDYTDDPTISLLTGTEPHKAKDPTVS
# Genome polyprotein = Genome polyprotein (dengue virus type 2, UniProt P29990); experiment: Dengue-2 NS5 methyltransferase inhibitors, primary screen, biochemical, confirmation dose response (AID 588689); type: functional
# Genome polyprotein, sequence (P29990 2492-3391 limits assumed): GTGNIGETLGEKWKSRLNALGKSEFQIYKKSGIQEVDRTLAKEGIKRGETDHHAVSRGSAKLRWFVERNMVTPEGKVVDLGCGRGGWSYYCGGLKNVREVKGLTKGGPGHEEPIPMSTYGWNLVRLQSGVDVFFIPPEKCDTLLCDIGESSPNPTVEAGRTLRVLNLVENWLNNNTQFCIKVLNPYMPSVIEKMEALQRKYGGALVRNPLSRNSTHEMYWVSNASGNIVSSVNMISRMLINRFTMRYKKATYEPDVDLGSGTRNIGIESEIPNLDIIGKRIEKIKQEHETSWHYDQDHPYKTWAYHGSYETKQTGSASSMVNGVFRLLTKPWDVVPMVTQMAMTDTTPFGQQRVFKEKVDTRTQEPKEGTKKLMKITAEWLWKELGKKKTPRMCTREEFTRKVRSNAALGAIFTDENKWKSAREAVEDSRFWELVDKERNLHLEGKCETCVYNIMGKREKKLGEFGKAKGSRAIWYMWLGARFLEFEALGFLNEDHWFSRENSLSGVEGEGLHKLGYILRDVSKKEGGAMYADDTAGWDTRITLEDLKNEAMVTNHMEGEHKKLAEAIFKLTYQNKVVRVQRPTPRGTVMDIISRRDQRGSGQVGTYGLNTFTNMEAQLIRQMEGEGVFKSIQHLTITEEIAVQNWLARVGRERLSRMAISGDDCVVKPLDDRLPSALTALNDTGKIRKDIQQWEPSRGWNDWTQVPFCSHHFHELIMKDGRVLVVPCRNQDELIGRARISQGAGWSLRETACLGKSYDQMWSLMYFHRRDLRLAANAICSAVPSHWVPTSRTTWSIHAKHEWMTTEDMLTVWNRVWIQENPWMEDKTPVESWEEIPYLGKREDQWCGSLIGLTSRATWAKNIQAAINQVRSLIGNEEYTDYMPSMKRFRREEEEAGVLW
# [15] = target: T5, Long-chain-fatty-acid--AMP ligase FadD28 (Mycobacterium tuberculosis, UniProt P9WQ59); experiment: Fluorescence polarization aasay to screen for inhibitors that compete for the binding of FadD28 to a bisubstrate Measured in Biochemical System Using Plate Reader - 2147-01_Inhibitor_Dose_CherryPick_Activity.; type: functional, Mycobacterium tuberculosis H37Rv
# T5 sequence (P9WQ59 whole entry): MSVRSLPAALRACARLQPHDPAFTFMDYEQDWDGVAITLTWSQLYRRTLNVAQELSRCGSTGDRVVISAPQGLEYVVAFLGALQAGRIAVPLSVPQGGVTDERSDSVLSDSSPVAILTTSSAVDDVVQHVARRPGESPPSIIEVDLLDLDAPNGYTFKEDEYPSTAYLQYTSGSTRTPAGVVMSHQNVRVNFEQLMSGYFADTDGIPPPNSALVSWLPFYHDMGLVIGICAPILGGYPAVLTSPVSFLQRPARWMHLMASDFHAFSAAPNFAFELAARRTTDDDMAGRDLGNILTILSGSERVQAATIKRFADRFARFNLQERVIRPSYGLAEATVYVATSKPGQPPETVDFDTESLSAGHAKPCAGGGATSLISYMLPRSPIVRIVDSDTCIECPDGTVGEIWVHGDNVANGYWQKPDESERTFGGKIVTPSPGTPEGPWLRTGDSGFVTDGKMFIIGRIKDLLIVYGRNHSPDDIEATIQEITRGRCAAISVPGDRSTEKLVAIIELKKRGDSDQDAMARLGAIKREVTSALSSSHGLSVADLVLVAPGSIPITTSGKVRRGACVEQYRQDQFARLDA
# [16] = THP-1 cell cytotoxicity, dose response, cytotoxicity control for Vif-APOBEC3G degradation inhibitor project, THP-1 cells (AID 1117359); type: functional; settings: Human immunodeficiency virus 1, THP-1
# [17] = target: FAD-linked sulfhydryl oxidase ALR (Homo sapiens, UniProt P55789); experiment: inhibitors of human ALR sulfhydryl oxidase, dose response, biochemical, H2O2 detection, luminescence, cherry-pick (AID 493248)
# FAD-linked sulfhydryl oxidase ALR, sequence (P55789 whole entry): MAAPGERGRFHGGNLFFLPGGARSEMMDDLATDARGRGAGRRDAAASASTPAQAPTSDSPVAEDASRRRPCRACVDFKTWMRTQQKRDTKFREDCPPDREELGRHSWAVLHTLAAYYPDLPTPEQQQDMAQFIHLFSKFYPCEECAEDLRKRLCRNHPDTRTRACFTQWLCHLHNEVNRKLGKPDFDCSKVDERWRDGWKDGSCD
# [18] = target: T6, Trace amine-associated receptor 1 (Homo sapiens, UniProt Q96RJ0); experiment: Fluorescence-based cell-based high throughput dose response assay to identify agonists of the human trace amine associated receptor 1 (TAAR1).; type: functional
# T6 sequence (Q96RJ0 whole entry): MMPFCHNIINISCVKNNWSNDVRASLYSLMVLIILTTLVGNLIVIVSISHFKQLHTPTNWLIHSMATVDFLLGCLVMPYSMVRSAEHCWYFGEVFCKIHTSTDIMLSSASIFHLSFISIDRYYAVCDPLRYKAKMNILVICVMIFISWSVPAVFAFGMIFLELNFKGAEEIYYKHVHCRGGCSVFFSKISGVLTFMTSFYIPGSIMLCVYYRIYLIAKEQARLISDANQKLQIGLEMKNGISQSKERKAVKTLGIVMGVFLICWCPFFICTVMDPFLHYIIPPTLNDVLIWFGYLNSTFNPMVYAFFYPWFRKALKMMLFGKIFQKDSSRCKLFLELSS
# [19] = target: T6, Trace amine-associated receptor 1; experiment: Counterscreen for agonists of the human trace amine associated receptor 1 (hTAAR1): Fluorescence-based cell-based high throughput dose response assay to identify hTAAR1 agonist that also desensitize TAAR1 receptor response.; type: functional
smiles,measurement,setting,value
O=C(C1=C[C@H](C2CCCCC2)C[C@H](OCc2ccc(CO)cc2)O1)N1CCN(Cc2ccc3c(c2)OCO3)CC1,EC50,[1],< 0.1 µM (active)
same,EC50,[2],> 60 µM (not active)
same,EC50,cells,0.156 µM (active)
CCCCCCCSc1cc(OC)c(CCNC)cc1OC,EC50,[3],> 120 µM (not active)
same,EC50,[4],> 120 µM (not active)
same,EC50,[5],11.9 µM (active)
same,EC50,[6],9.72 µM (active)
same,EC50,[7],8.71 µM (active)
same,IC50,[8],> 20 µM (inactive)
same,AC50,[9],10.6 µM (active)
same,AC50,[10],8.47 µM (active)
same,AC50,[11],10.5 µM (active)
same,AC50,[12],17.5 µM (active)
Cc1cccc(NC(=O)CSc2nnc(-c3ccco3)c(-c3ccco3)n2)c1C,IC50,Leucine aminopeptidase,20.6 µM (active)
same,IC50,[13],5.98 µM (active)
same,EC50,[14],> 260 µM (inactive)
same,IC50,Genome polyprotein,96.3 µM (active)
same,AC50,[15],> 100 µM (inactive)
same,CC50,[16],> 40 µM (active)
CCN(CCNC(=O)C1CCCN(Cc2nc(-c3ccc(OC)cc3)oc2C)C1)c1ccccc1 (stereo not drawn),EC50,[1],< 0.1 µM (active)
same,EC50,[2],7.96 µM (active)
same,AC50,[17],0.01 µM (active)
same,EC50,cells,0.383 µM (active)
CC(=O)n1cc([C@H]2C=C(C(=O)N3CCN(Cc4ccc5c(c4)OCO5)CC3)O[C@@H](OCc3ccc(CO)cc3)C2)c2ccccc21,EC50,[1],< 0.1 µM (active)
same,EC50,[2],> 30 µM (not active)
same,EC50,cells,0.197 µM (active)
c1ccc(CN(CC2=NCCN2)c2ccccc2)cc1 [ANTAZOLINE HYDROCHLORIDE],EC50,[18],4.31 µM (active)
same,IC50,[19],> 29.9 µM (inactive)
